Source: US20060276464A1, “Diarylsulfone sulfonamides and use thereof” (Wyeth, priority 2005, published 2006)

Target: T1, SFRP-1 (Homo sapiens, UniProt Q8N474)
T1 sequence (Q8N474 32-314): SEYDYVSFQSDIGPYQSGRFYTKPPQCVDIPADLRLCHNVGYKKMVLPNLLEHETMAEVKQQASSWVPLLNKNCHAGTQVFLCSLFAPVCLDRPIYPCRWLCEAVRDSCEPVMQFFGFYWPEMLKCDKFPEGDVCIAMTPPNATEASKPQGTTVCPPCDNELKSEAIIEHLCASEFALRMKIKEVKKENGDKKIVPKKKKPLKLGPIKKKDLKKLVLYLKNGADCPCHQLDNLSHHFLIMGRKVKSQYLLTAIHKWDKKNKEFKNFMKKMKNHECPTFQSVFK
Assay: Cell-based assay for in vitro measurement of SFRP-1/SARP2 antagonist activity (U2OS cells co-transfected with 16x TCF-tk-Luciferase reporter, Wnt and hSFRP-1);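 also: U2OS cells co-transfected with a TCF-tk luciferase reporter, a Wnt vector, hSFRP-1 or empty vector and CMV-βgal, luciferase luminescence read in cell lysates alongside βgal activity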
Details: U2OS, read-out: Fold Induction with SFRP-1, U2OS cells, single dose 10 μM, luciferase reporter, fold induction over SFRP-1 control

| fold induction at 10 µM | SMILES |
| --- | --- |
| 1.3 | Cc1ccc(C(=O)NCCNS(=O)(=O)c2cc(S(=O)(=O)c3ccccc3)ccc2C(F)(F)F)cc1 [Example 775, 4-Methyl-N-[2-({[5-(phenylsulfonyl)-2-(trifluoromethyl)phenyl]sulfonyl}amino)ethyl]benzamide] |
| 0.9 | CC(C)(C)c1ccc(C(=O)NCCNS(=O)(=O)c2cc(S(=O)(=O)c3ccccc3)ccc2C(F)(F)F)cc1 [Example 776, 4-tert-Butyl-N-[2-({[5-(phenylsulfonyl)-2-(trifluoromethyl)phenyl]sulfonyl}amino)ethyl]benzamide] |
| 1.1 | O=C(NCCNS(=O)(=O)c1cc(S(=O)(=O)c2ccccc2)ccc1C(F)(F)F)c1ccc(F)cc1 [Example 777, 4-Fluoro-N-[2-({[5-(phenylsulfonyl)-2-(trifluoromethyl)phenyl]sulfonyl}amino)ethyl]benzamide] |
| 1.2 | O=C(NCCNS(=O)(=O)c1cc(S(=O)(=O)c2ccccc2)ccc1C(F)(F)F)c1ccc(Cl)cc1 [Example 778, 4-Chloro-N-[2-({[5-(phenylsulfonyl)-2-(trifluoromethyl)phenyl]sulfonyl}amino)ethyl]benzamide] |
| 1 | O=C(NCCNS(=O)(=O)c1cc(S(=O)(=O)c2ccccc2)ccc1C(F)(F)F)c1ccc(Br)cc1 [Example 779, 4-Bromo-N-[2-({[5-(phenylsulfonyl)-2-(trifluoromethyl)phenyl]sulfonyl}amino)ethyl]benzamide] |
| 1.7 | COc1ccc(C(=O)NCCNS(=O)(=O)c2cc(S(=O)(=O)c3ccccc3)ccc2C(F)(F)F)cc1 [Example 780, 4-Methoxy-N-[2-({[5-(phenylsulfonyl)-2-(trifluoromethyl)phenyl]sulfonyl}amino)ethyl]benzamide] |
| 1.2 | O=C(NCCNS(=O)(=O)c1cc(S(=O)(=O)c2ccccc2)ccc1C(F)(F)F)c1ccc(C(F)(F)F)cc1 [Example 781, N-[2-({[5-(Phenylsulfonyl)-2-(trifluoromethyl)phenyl]sulfonyl}amino)ethyl]-4-(trifluoromethyl)benzamide] |
| 1.2 | O=C(NCCNS(=O)(=O)c1cc(S(=O)(=O)c2ccccc2)ccc1C(F)(F)F)c1ccc(OC(F)(F)F)cc1 [Example 782, N-[2-({[5-(Phenylsulfonyl)-2-(trifluoromethyl)phenyl]sulfonyl}amino)ethyl]-4-(trifluoromethoxy)benzamide] |
| 1.5 | Cc1ccc(S(=O)(=O)c2ccc(F)cc2)cc1S(=O)(=O)NC1CCN(C(=O)OC(C)(C)C)CC1 [Example 789, tert-butyl 4-[({5-[(4-fluorophenyl)sulfonyl]-2-methylphenyl}sulfonyl)amino]piperidine-1-carboxylate] |
| 1.1 | CC(C)(C)OC(=O)N1CCCC1CCNS(=O)(=O)c1cc(S(=O)(=O)c2ccccc2)ccc1C(F)(F)F (centres unmarked) [Example 908, tert-butyl 2-[2-({[5-(phenylsulfonyl)-2-(trifluoromethyl)phenyl]sulfonyl}amino)ethyl]pyrrolidine-1-carboxylate] |
| 1.2 | Cc1cc(S(=O)(=O)c2ccccc2)cc(S(=O)(=O)NC2CCN(C(=O)OC(C)(C)C)CC2)c1C [Example 910, tert-butyl 4-({[2,3-dimethyl-5-(phenylsulfonyl)phenyl]sulfonyl}amino)piperidine-1-carboxylate] |
| 1.1 | Cc1cc(S(=O)(=O)c2ccccc2)cc(S(=O)(=O)NC2CCNCC2)c1C [Example 922, 2,3-dimethyl-5-(phenylsulfonyl)-N-piperidin-4-ylbenzenesulfonamide] |
| 1.8 | COC(=O)c1ccc(CNS(=O)(=O)c2cc(S(=O)(=O)c3ccccc3)ccc2C(C)C)cc1 [Example 951, methyl 4-[({[2-isopropyl-5-(phenylsulfonyl)phenyl]sulfonyl}amino)methyl]benzoate] |
| 1.4 | O=S(=O)(NCCc1ccc(Br)cc1)c1cc(S(=O)(=O)c2ccccc2)ccc1C(F)(F)F [Example 960, N-[2-(4-bromophenyl)ethyl]-5-(phenylsulfonyl)-2-(trifluoromethyl)benzenesulfonamide] |
